This is an account of results in ChEMBL document CHEMBL3217470, “Binding free energy calculations and biological testing of novel thiobarbiturates as inhibitors of the human NAD+dependent histone deacetylase Sirt2” (Medchemcomm, 2012).

One experiment addresses T1, NAD-dependent protein deacetylase sirtuin-2 (Homo sapiens, UniProt Q8IXJ6).
T1 sequence (Q8IXJ6 whole entry): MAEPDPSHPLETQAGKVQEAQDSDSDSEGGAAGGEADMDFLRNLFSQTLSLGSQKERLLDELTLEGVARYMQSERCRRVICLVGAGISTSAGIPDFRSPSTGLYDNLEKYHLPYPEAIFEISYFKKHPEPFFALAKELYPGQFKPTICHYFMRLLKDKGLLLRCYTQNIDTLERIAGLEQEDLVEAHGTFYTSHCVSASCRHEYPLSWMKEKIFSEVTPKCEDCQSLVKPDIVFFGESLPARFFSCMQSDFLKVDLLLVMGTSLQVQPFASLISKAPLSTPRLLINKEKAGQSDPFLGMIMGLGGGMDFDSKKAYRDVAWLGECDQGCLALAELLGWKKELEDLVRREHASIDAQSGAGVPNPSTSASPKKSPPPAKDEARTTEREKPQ
In words: Inhibition of human recombinant Sirt2 using ZMAL as substrate after 4 hrs by fluorescent deacetylase assay. Conditions: read-out: IC50.
`CC(=O)c1ccc(-c2ccc(C=C3C(=O)NC(=S)NC3=O)o2)cc1`: the IC50 was determined as 5.5 µM. The same measure, in the same setting: for `O=C1NC(=S)NC(=O)C1=Cc1ccc(OCc2cccc3ccccc23)cc1` the value was 2.6 µM.

Take `C=CCN1C(=O)/C(=C/c2ccc(-c3cccc(Cl)c3Cl)o2)C(=O)NC1=S`: the IC50 is 2.8 µM. Same read-out and setting: for `COc1ccc(CC2C(=O)NC(=S)NC2=O)cc1OCc1ccccc1` the value was 5.8 µM; for `COC(=O)c1ccc(-c2ccc(C=C3C(=O)NC(=S)NC3=O)o2)cc1`, 5.7 µM; for `O=C1NC(=S)NC(=O)C1=Cc1ccc(OCc2ccccc2)c(OCc2ccccc2)c1`, 3.9 µM.

On to `O=C1NC(=S)NC(=O)C1=Cc1ccc(-c2ccc(Cl)c(Cl)c2)o1`, for which the IC50 was 1.5 µM. Same read-out and setting: for `O=C1NC(=S)NC(=O)C1=Cc1cc(OCc2ccc(Br)cc2)ccc1Cl` the value was 1.8 µM; for `O=C1NC(=S)NC(=O)C1=Cc1ccc(-c2ccc(C(=O)OCc3cccc(Cl)c3)cc2)o1`, 2.2 µM. The same measure, in the same setting: for `CCOc1ccc(C=C2C(=O)NC(=S)NC2=O)cc1CCc1ccccc1` the value was 4.9 µM.

Turning to `O=C1NC(=S)NC(=O)C1=Cc1ccc(-c2ccc(Cl)cc2)o1`, the IC50 worked out at 6.5 µM. On the same count and under the same terms, for `CC(C)Oc1ccc(C=C2C(=O)NC(=S)NC2=O)cc1` the value was 5.8 µM; for `O=C1NC(=S)NC(=O)C1=Cc1cn(-c2ccccc2)nc1-c1ccc(Cl)cc1`, 3.8 µM. Same read-out and setting: for `O=C1NC(=S)NC(=O)C1=Cc1ccc(Sc2ccccc2)o1` the value was 3.5 µM.

The same experiment, now with this note: read-out: pIC50 (converted).
Consider `O=C1NC(=S)NC(=O)C1=Cc1ccc(-c2ccc(C(=O)OCc3cccc(Cl)c3)cc2)o1`, for which the IC50 is 6.46 µM.

As for `O=C1NC(=S)NC(=O)C1=Cc1ccc(-c2ccc(Cl)cc2)o1`, the IC50 is 2.19 µM.
